The NIST ThermoML archive (doi:10.1021/je600557n)

Columns and labels:
[1] = xn = mol fraction of the nth substance listed; settings: 101 kPa, Liquid
[2] = molar heat capacity at constant pressure; xn = mol fraction of the nth substance listed; settings: 101 kPa, Liquid, Small sample (50 mg) DSC
[3] = refractive index (Na D-line) (dimensionless); xn = mol fraction of the nth substance listed; settings: 101 kPa, Liquid, Standard Abbe refractometry

C1CCOCC1 [tetrahydropyran] + C[S+](C)[O-]
Settings	mass density, [1] [kg/m3]	molar heat capacity at constant pressure, [2] [J/K/mol]	refractive index, [3]	viscosity, [1] [mPa·s]
293.15 K, x2 = 0.073	895.7	–	1.4268	0.906
293.15 K, x2 = 0.0996	–	148.8	–	–
293.15 K, x2 = 0.1171	903.11	–	1.4288	0.931
293.15 K, x2 = 0.1317	–	149.7	–	–
293.15 K, x2 = 0.2176	920.63	–	1.4336	1.005
293.15 K, x2 = 0.2636	–	153	–	–
293.15 K, x2 = 0.3108	937.76	–	1.4383	1.082
293.15 K, x2 = 0.3636	–	154.6	–	–
293.15 K, x2 = 0.4069	956.42	–	1.4433	1.173
293.15 K, x2 = 0.4832	–	155.9	–	–
293.15 K, x2 = 0.4982	975.18	–	1.4483	1.274
293.15 K, x2 = 0.5309	–	156	–	–
293.15 K, x2 = 0.5763	–	155.8	–	–
293.15 K, x2 = 0.5786	992.6	–	1.4528	1.377
293.15 K, x2 = 0.6227	1002.56	–	1.4554	1.433
293.15 K, x2 = 0.6527	1009.49	–	1.4573	1.476
293.15 K, x2 = 0.6773	–	155.5	–	–
293.15 K, x2 = 0.7338	1028.89	–	1.4624	1.605
293.15 K, x2 = 0.7586	–	154.7	–	–
293.15 K, x2 = 0.8085	1047.69	–	1.4673	1.75
293.15 K, x2 = 0.8412	–	153.7	–	–
293.15 K, x2 = 0.9237	–	152	–	–
293.15 K, x2 = 0.9321	1080.93	–	1.4761	2.022
293.15 K, x2 = 0.9579	–	151.4	–	–
303.15 K, x2 = 0.0996	–	152.5	–	–
303.15 K, x2 = 0.1175	893.4	–	1.4226	0.804
303.15 K, x2 = 0.1317	–	153.1	–	–
303.15 K, x2 = 0.2209	911.49	–	1.4275	0.865
303.15 K, x2 = 0.2636	–	155	–	–
303.15 K, x2 = 0.3113	928.13	–	1.4322	0.925
303.15 K, x2 = 0.3636	–	156.1	–	–
303.15 K, x2 = 0.411	947.52	–	1.4375	1.001
303.15 K, x2 = 0.4832	–	156.6	–	–
303.15 K, x2 = 0.4945	964.64	–	1.4422	1.078
303.15 K, x2 = 0.5309	–	156.8	–	–
303.15 K, x2 = 0.5341	973.08	–	1.4444	1.112
303.15 K, x2 = 0.5763	–	156.5	–	–
303.15 K, x2 = 0.5869	984.64	–	1.4477	1.168
303.15 K, x2 = 0.6597	1001.27	–	1.4522	1.25
303.15 K, x2 = 0.6773	–	156	–	–
303.15 K, x2 = 0.7348	1019.24	–	1.4571	1.345
303.15 K, x2 = 0.7586	–	155.5	–	–
303.15 K, x2 = 0.8105	1038.27	–	1.4621	1.453
303.15 K, x2 = 0.8412	–	154.6	–	–
303.15 K, x2 = 0.876	1055.53	–	1.4666	1.563
303.15 K, x2 = 0.9237	–	153.2	–	–
303.15 K, x2 = 0.9393	1072.96	–	1.471	1.679
303.15 K, x2 = 0.9579	–	152.9	–	–
313.15 K, x2 = 0.07165	875.38	–	1.4152	0.681
313.15 K, x2 = 0.0996	–	157.1	–	–
313.15 K, x2 = 0.1195	883.44	–	1.4173	0.701
313.15 K, x2 = 0.1317	–	157.7	–	–
313.15 K, x2 = 0.2128	899.76	–	1.422	0.745
313.15 K, x2 = 0.2636	–	159.3	–	–
313.15 K, x2 = 0.3143	918.44	–	1.4272	0.803
313.15 K, x2 = 0.3636	–	160	–	–
313.15 K, x2 = 0.4102	937.09	–	1.4323	0.863
313.15 K, x2 = 0.4832	–	160.5	–	–
313.15 K, x2 = 0.4969	954.93	–	1.4375	0.927
313.15 K, x2 = 0.5309	–	160.3	–	–
313.15 K, x2 = 0.5311	962.23	–	1.4394	0.953
313.15 K, x2 = 0.5763	–	160.1	–	–
313.15 K, x2 = 0.5865	974.36	–	1.4429	0.997
313.15 K, x2 = 0.6595	991.06	–	1.4474	1.063
313.15 K, x2 = 0.6773	–	159.3	–	–
313.15 K, x2 = 0.7295	1007.8	–	1.452	1.136
313.15 K, x2 = 0.7586	–	158.5	–	–
313.15 K, x2 = 0.8349	1034.54	–	1.4592	1.26
313.15 K, x2 = 0.8412	–	157.3	–	–
313.15 K, x2 = 0.9237	–	155.8	–	–
313.15 K, x2 = 0.938	1062.5	–	1.4663	1.405
313.15 K, x2 = 0.9579	–	155.1	–	–
